Read-outs that look alike come from different tables or passages of the source.
Experiments:
[1] = Rat biodistribution of Tc-99m complexes of separated diastereoisomers of compound 1 (Example 23); format: in vivo, rats; conditions: for % id/organ, Blood / % id/organ, Brain / % id/organ, Liver: rats
Source text: The experiment of Example 22 was repeated using the separated diastereoisomers of compound 1. The results are given in the Table below and should be compared to those for compound 1 (the mixture) in the Table in […].

[2] = Clinical comparison of dl and meso diastereoisomers of Compound 1, whole body scanning (Example 25a); format: in vivo, normal volunteer subjects (human); conditions: 20 minutes p.i.; mean; human
Procedure: All clinical studies, involving comparisons between the Tc-99m complexes of dl and meso, and d,l and dl stereoisomers of Compound 1 were conducted in normal volunteer subjects at Aberdeen Royal Infirmary.
(a) Comparison of dl and meso diastereoisomers of Compound 1
Data is then taken from area of interest studies employing a whole body scanning device.

[3] = Clinical comparison of d, l and dl stereoisomers of Compound 1 (Example 25b); format: in vivo, normal volunteers (human); conditions: 30 minutes p.i.; mean of three studies; human
Procedure: The following table gives the mean of three studies for each stereoisomer, of percentage of injected dose in normal volunteers at 30 minutes p.i.

[4] = Rat biodistribution of Tc-99m complexes from isolated stereoisomers (Example 24); conditions: for % id/organ, Blood / % id/organ, Brain / % id/organ, Heart / % id/organ, Liver: (a) diastereoisomers, rats, mean from 3 animals; for difference in brain uptake, dl-isomer versus meso-isomer: see Example 24
Procedure: (§1) 0.1 ml of the Tc-99m complex solution was administered by intravenous injection (lateral tail vein) to each of five or six rats (140-220 g). The injected dose was equivalent to approximately 1 mCi of Tc-99m. Three rats were sacrificed at 2 minutes post injection, and 3 at 1 hour or 2 at 2 hours post injection. At dissection, the organs and blood samples shown in the following table were taken, and assayed for radioactivity. The uptake in each organ or tissue was calculated as a percentage of the total activity recovered.
(§2) Data in Tables (a) and (b) are the mean from 3 animals at each time point.

[5] = rat, in vivo
Procedure: as §1, §2

[6] = Animal biodistribution of Tc-99m complexes of ligands, no separation of stereoisomers (Example 22); format: in vivo, rats; conditions: i.v. rats
Procedure: The ratio of diastereoisomers in the Tc-99m complexes used in this experiment is not known.
The results at 2 minutes and 1 hour p.i. are the mean of 3 animals.
The results at 2 hours p.i. are the mean of 2 animals.

CC(=NO)[C@H](C)NCC(C)(C)CN[C@@H](C)C(C)=NO (relative stereo) [Compound 1 d1, dl-4,8-Diaza-3,6,6,9-tetramethylundecane-2,10-dione bis oxime]
% id/organ, Blood ([1]; 2 min p.i.): 11.42 % id/organ | % id/organ, Brain ([1]; 2 min p.i.): 1.99 % id/organ | % id/organ, Liver ([1]; 2 min p.i.): 9.42 % id/organ | % id/organ, Blood ([1]; 1 hour p.i.): 10.17 % id/organ | % id/organ, Brain ([1]; 1 hour p.i.): 1.90 % id/organ | % id/organ, Liver ([1]; 1 hour p.i.): 9.25 % id/organ | difference in brain uptake of the two isomers (factor) ([1]; dl versus meso, the better is the dl-isomer): 2.3 | % injected activity, Bladder + Urine [2]: 2.28 % injected activity | % injected activity, Brain [2]: 4.22 % injected activity | % injected activity, Kidneys [2]: 3.50 % injected activity | % injected activity, Liver [2]: 10.22 % injected activity | percentage of injected dose, Brain [3]: 4.16 percentage of injected dose | percentage of injected dose, Kidney [3]: 3.03 percentage of injected dose | percentage of injected dose, Liver [3]: 10.73 percentage of injected dose | % id/organ, Blood ([4]; 2 mins pi): 11.0 % id/organ | % id/organ, Brain ([4]; 2 mins pi): 2.1 % id/organ | % id/organ, Heart ([4]; 2 mins pi): 1.2 % id/organ | % id/organ, Liver ([4]; 2 mins pi): 11.3 % id/organ | % id/organ, Blood ([4]; 1 hr pi): 8.6 % id/organ | % id/organ, Brain ([4]; 1 hr pi): 1.6 % id/organ | % id/organ, Heart ([4]; 1 hr pi): 0.7 % id/organ | % id/organ, Liver ([4]; 1 hr pi): 11.9 % id/organ | brain retention and brain imaging, dl-isomer versus meso-isomer ([4]; in words): surprisingly superior to the complex of the meso-isomer

CC(=NO)[C@H](C)NCCCN[C@@H](C)C(C)=NO (relative stereo) [Compound 2 d1]
% id/organ, Blood ([4]; 2 mins pi): 10.5 % id/organ | % id/organ, Brain ([4]; 2 mins pi): 1.8 % id/organ | % id/organ, Heart ([4]; 2 mins pi): 1.1 % id/organ | % id/organ, Liver ([4]; 2 mins pi): 11.6 % id/organ | % id/organ, Blood ([4]; 1 hr pi): 7.8 % id/organ | % id/organ, Brain ([4]; 1 hr pi): 1.5 % id/organ | % id/organ, Heart ([4]; 1 hr pi): 0.7 % id/organ | % id/organ, Liver ([4]; 1 hr pi): 9.4 % id/organ | difference in brain uptake, dl-isomer versus meso-isomer ([4]; in words): do not show any marked difference in brain uptake

CC(=NO)C(C)NCC(C)CNC(C)C(C)=NO (stereo not shown) [Compound 1 1]
% id/organ, Blood ([5]; 2 min): 11.0 % id/organ | % id/organ, Brain ([5]; 2 min): 2.6 % id/organ | % id/organ, Liver ([5]; 2 min): 9.6 % id/organ | % id/organ, Blood ([5]; 60 min): 11.1 % id/organ | % id/organ, Brain ([5]; 60 min): 2.2 % id/organ | % id/organ, Liver ([5]; 60 min): 7.7 % id/organ | percentage of injected dose, Brain [3]: 4.30 percentage of injected dose | percentage of injected dose, Kidney [3]: 4.0 percentage of injected dose | percentage of injected dose, Liver [3]: 8.06 percentage of injected dose

CC(=NO)[C@H](C)NCC(C)(C)CN[C@H](C)C(C)=NO [Compound 1 meso, meso-4,8-Diaza-3,6,6,9-tetramethylundecane-2,10-dione bis oxime]
% id/organ, Blood ([1]; 2 min p.i.): 5.33 % id/organ | % id/organ, Brain ([1]; 2 min p.i.): 0.78 % id/organ | % id/organ, Liver ([1]; 2 min p.i.): 26.86 % id/organ | % id/organ, Blood ([1]; 1 hour p.i.): 3.17 % id/organ | % id/organ, Brain ([1]; 1 hour p.i.): 0.53 % id/organ | % id/organ, Liver ([1]; 1 hour p.i.): 24.24 % id/organ | % injected activity, Bladder + Urine [2]: 0.6 % injected activity | % injected activity, Brain [2]: 1.85 % injected activity | % injected activity, Kidneys [2]: 1.3 % injected activity | % injected activity, Liver [2]: 16.6 % injected activity | % id/organ, Blood ([4]; 2 mins pi): 5.0 % id/organ | % id/organ, Brain ([4]; 2 mins pi): 1.1 % id/organ | % id/organ, Heart ([4]; 2 mins pi): 0.6 % id/organ | % id/organ, Liver ([4]; 2 mins pi): 19.9 % id/organ | % id/organ, Blood ([4]; 1 hr pi): 3.1 % id/organ | % id/organ, Brain ([4]; 1 hr pi): 0.7 % id/organ | % id/organ, Heart ([4]; 1 hr pi): 0.2 % id/organ | % id/organ, Liver ([4]; 1 hr pi): 23.7 % id/organ

CC(=NO)[C@H](C)NCCCN[C@H](C)C(C)=NO [Compound 2 meso]
% id/organ, Blood ([4]; 2 mins pi): 6.9 % id/organ | % id/organ, Brain ([4]; 2 mins pi): 1.7 % id/organ | % id/organ, Heart ([4]; 2 mins pi): 0.6 % id/organ | % id/organ, Liver ([4]; 2 mins pi): 17.9 % id/organ | % id/organ, Blood ([4]; 1 hr pi): 2.8 % id/organ | % id/organ, Brain ([4]; 1 hr pi): 1.4 % id/organ | % id/organ, Heart ([4]; 1 hr pi): 0.2 % id/organ | % id/organ, Liver ([4]; 1 hr pi): 20.7 % id/organ | difference in brain uptake, dl-isomer versus meso-isomer ([4]; in words): do not show any marked difference in brain uptake

CCC(NCCCNC(CC)C(C)=NO)C(C)=NO (stereo not shown) [Compound 3, 4,8-Diaza-3,9-diethylundecane-2,10-dione bis oxime]
% id/organ, Blood ([6]; 2 min pi, mean of 3 animals): 6.8 % id/organ | % id/organ, Brain ([6]; 2 min pi, mean of 3 animals): 1.1 % id/organ | % id/organ, Heart ([6]; 2 min pi, mean of 3 animals): 0.2 % id/organ | % id/organ, Liver ([6]; 2 min pi, mean of 3 animals): 27.8 % id/organ | % id/organ, Blood ([6]; 2 hr pi, mean of 2 animals): 2.1 % id/organ | % id/organ, Brain ([6]; 2 hr pi, mean of 2 animals): 0.7 % id/organ | % id/organ, Heart ([6]; 2 hr pi, mean of 2 animals): 0.1 % id/organ | % id/organ, Liver ([6]; 2 hr pi, mean of 2 animals): 17.0 % id/organ

CCC(=NO)C(C)NCCCNC(C)C(CC)=NO (stereo not shown) [Compound 4, 5,9-Diaza-4,10-dimethyltridecane-3,11-dione bis oxime]
% id/organ, Blood ([6]; 2 min pi, mean of 3 animals): 13.4 % id/organ | % id/organ, Brain ([6]; 2 min pi, mean of 3 animals): 1.6 % id/organ | % id/organ, Liver ([6]; 2 min pi, mean of 3 animals): 15.6 % id/organ | % id/organ, Blood ([6]; 1 hr pi, mean of 3 animals): 5.7 % id/organ | % id/organ, Brain ([6]; 1 hr pi, mean of 3 animals): 1.5 % id/organ | % id/organ, Liver ([6]; 1 hr pi, mean of 3 animals): 12.7 % id/organ

Reference: patent US4789736A, “Complexes of technetium-99m with propylene amine oximes” (Amersham International plc, priority 1985, dated 1988)
